Results taken from ChEMBL document CHEMBL5120927, “LEGO-Lipophosphonoxins: A Novel Approach in Designing Membrane Targeting Antimicrobials” (J Med Chem, 2022).

Test system: Enterococcus faecalis
Assay: Antibacterial activity against Enterococcus faecalis ATCC 29212 = CCM 4224 assessed as inhibition of bacterial growth incubated for 24 hrs by microdilution assay
Assay type: functional
Details: not given

SMILES | MIC [µg/mL]
Cl.Cl.Cl.Cl.Cl.Cl.NCCCN(CCCN)CCP(=O)(OCCCOP(=O)(CCN(CCCN)CCCN)OCCC12CC3CC(CC(C3)C1)C2)OCCC12CC3CC(CC(C3)C1)C2 (centres undefined) | 2

Test system: Staphylococcus aureus
Assay: Antibacterial activity against Staphylococcus aureus ATCC 29213 = CCM 4223 assessed as inhibition of bacterial growth incubated for 24 hrs by microdilution assay
Assay type: functional
Details: not given

SMILES | MIC [µg/mL]
Cl.Cl.Cl.Cl.Cl.Cl.NCCCN(CCCN)CCP(=O)(OCCCOP(=O)(CCN(CCCN)CCCN)OCCC12CC3CC(CC(C3)C1)C2)OCCC12CC3CC(CC(C3)C1)C2 (centres undefined) | 1

Test system: Staphylococcus aureus
Assay: Antibacterial activity against Staphylococcus aureus ATCC 29213 = CCM 4223 assessed as inhibition of bacterial growth incubated for 24 hrs in presence of BSA by microdilution assay
Assay type: functional
Details: not given

SMILES | MIC [µg/mL]
Cl.Cl.Cl.Cl.Cl.Cl.NCCCN(CCCN)CCP(=O)(OCCCOP(=O)(CCN(CCCN)CCCN)OCCC12CC3CC(CC(C3)C1)C2)OCCC12CC3CC(CC(C3)C1)C2 (centres undefined) | 2

Test system: Escherichia coli
Assay: Antibacterial activity against Escherichia coli ATCC 25922 = CCM 3954 assessed as inhibition of bacterial growth incubated for 24 hrs by microdilution assay
Assay type: functional
Details: not given

SMILES | MIC [µg/mL]
Cl.Cl.Cl.Cl.Cl.Cl.NCCCN(CCCN)CCP(=O)(OCCCOP(=O)(CCN(CCCN)CCCN)OCCC12CC3CC(CC(C3)C1)C2)OCCC12CC3CC(CC(C3)C1)C2 (centres undefined) | 2

Test system: Escherichia coli
Assay: Antibacterial activity against Escherichia coli ATCC 25922 = CCM 3954 assessed as inhibition of bacterial growth incubated for 24 hrs in presence of BSA by microdilution assay
Assay type: functional
Details: not given

SMILES | MIC [µg/mL]
Cl.Cl.Cl.Cl.Cl.Cl.NCCCN(CCCN)CCP(=O)(OCCCOP(=O)(CCN(CCCN)CCCN)OCCC12CC3CC(CC(C3)C1)C2)OCCC12CC3CC(CC(C3)C1)C2 (centres undefined) | 1

Test system: Pseudomonas aeruginosa
Assay: Antibacterial activity against Pseudomonas aeruginosa ATCC 27853 = CCM 3955 assessed as inhibition of bacterial growth incubated for 24 hrs by microdilution assay
Assay type: functional
Details: not given

SMILES | MIC [µg/mL]
Cl.Cl.Cl.Cl.Cl.Cl.NCCCN(CCCN)CCP(=O)(OCCCOP(=O)(CCN(CCCN)CCCN)OCCC12CC3CC(CC(C3)C1)C2)OCCC12CC3CC(CC(C3)C1)C2 (centres undefined) | 16

Test system: not listed separately
Assay: Hemolytic activity in human RBC assessed as haemoglobin release measured after 3 hr
Assay type: toxicity, cell-based, Erythrocyte
Details: red blood cells (erythrocytes)

SMILES | HC50 at 3 h [µg/mL]
Cl.Cl.Cl.Cl.Cl.Cl.NCCCN(CCCN)CCP(=O)(OCCCOP(=O)(CCN(CCCN)CCCN)OCCC12CC3CC(CC(C3)C1)C2)OCCC12CC3CC(CC(C3)C1)C2 (centres undefined) | 196

Test system: not listed separately
Assay: Gradient chromatographic hydrophobicity index of the compound at pH 3.7 by HPLC analysis
Assay type: ADME
Details: not given

SMILES | CHI
Cl.Cl.Cl.Cl.Cl.Cl.NCCCN(CCCN)CCP(=O)(OCCCOP(=O)(CCN(CCCN)CCCN)OCCC12CC3CC(CC(C3)C1)C2)OCCC12CC3CC(CC(C3)C1)C2 (centres undefined) | 36.9

Test system: Staphylococcus epidermidis
Assay: Antibacterial activity against Staphylococcus epidermidis CCM 7221 assessed as inhibition of bacterial growth incubated for 24 hrs by microdilution assay
Assay type: functional
Details: not given

SMILES | MIC [µg/mL]
Cl.Cl.Cl.Cl.Cl.Cl.NCCCN(CCCN)CCP(=O)(OCCCOP(=O)(CCN(CCCN)CCCN)OCCC12CC3CC(CC(C3)C1)C2)OCCC12CC3CC(CC(C3)C1)C2 (centres undefined) | 2

Test system: Staphylococcus aureus
Assay: Antibacterial activity against methicillin resistant Staphylococcus aureus 4591/A assessed as reduction in microbial growth incubated for 24 hrs by microdilution assay
Assay type: functional
Details: not given

SMILES | MIC [µg/mL]
Cl.Cl.Cl.Cl.Cl.Cl.NCCCN(CCCN)CCP(=O)(OCCCOP(=O)(CCN(CCCN)CCCN)OCCC12CC3CC(CC(C3)C1)C2)OCCC12CC3CC(CC(C3)C1)C2 (centres undefined) | 1

Test system: Escherichia coli
Assay: Antibacterial activity against multidrug-resistant Escherichia coli CE5556 expressing CTX-M-15 assessed as reduction in microbial growth incubated for 24 hrs by microdilution assay
Assay type: functional
Details: not given

SMILES | MIC [µg/mL]
Cl.Cl.Cl.Cl.Cl.Cl.NCCCN(CCCN)CCP(=O)(OCCCOP(=O)(CCN(CCCN)CCCN)OCCC12CC3CC(CC(C3)C1)C2)OCCC12CC3CC(CC(C3)C1)C2 (centres undefined) | 2

Test system: Enterococcus faecium
Assay: Antibacterial activity against vancomycin resistant Enterococcus faecium 419/ANA assessed as reduction in microbial growth incubated for 24 hrs by microdilution assay
Assay type: functional
Details: not given

SMILES | MIC [µg/mL]
Cl.Cl.Cl.Cl.Cl.Cl.NCCCN(CCCN)CCP(=O)(OCCCOP(=O)(CCN(CCCN)CCCN)OCCC12CC3CC(CC(C3)C1)C2)OCCC12CC3CC(CC(C3)C1)C2 (centres undefined) | 32

Test system: Pseudomonas aeruginosa
Assay: Antibacterial activity against multidrug-resistant Pseudomonas aeruginosa assessed as reduction in microbial growth incubated for 24 hrs by microdilution assay
Assay type: functional
Details: not given

SMILES | MIC [µg/mL]
Cl.Cl.Cl.Cl.Cl.Cl.NCCCN(CCCN)CCP(=O)(OCCCOP(=O)(CCN(CCCN)CCCN)OCCC12CC3CC(CC(C3)C1)C2)OCCC12CC3CC(CC(C3)C1)C2 (centres undefined) | 4

Test system: not listed separately
Assay: Cytotoxicity against human HepG2 cells assessed as reduction in cell viability
Assay type: toxicity, cell-based
Details: not given

SMILES | CC50 [µM]
Cl.Cl.Cl.Cl.Cl.Cl.NCCCN(CCCN)CCP(=O)(OCCCOP(=O)(CCN(CCCN)CCCN)OCCC12CC3CC(CC(C3)C1)C2)OCCC12CC3CC(CC(C3)C1)C2 (centres undefined) | 93.6
